Data taken from the supplement of paper PMC5908809.

How the values were obtained:
[1] = system: IMC-1 (IL-2 20 ng/mL); assay: percent inhibition of viability; higher = more inhibition; details: 72 h
[2] = system: normal primary NK cells, pool 3 (3 donors) (IL-2 2.5 ng/mL); assay: as above; details: 72 h
[3] = system: NK-YS (IL-2 2.5 ng/mL); assay: as above; details: 72 h
[4] = system: YT (IL-2 2.5 ng/mL); assay: as above; details: 72 h
[5] = system: NK-92 (IL-2 2.5 ng/mL); assay: as above; details: 72 h
[6] = system: normal primary NK cells, pool 1 (3 donors) (IL-2 2.5 ng/mL); assay: as above; details: 72 h
[7] = system: DERL-7 (IL-2 2.5 ng/mL); assay: as above; details: 72 h
[8] = system: normal primary NK cells, pool 1 (3 donors), resting (IL-2 0 ng/mL); assay: as above; details: 72 h
[9] = system: NKL (IL-2 2.5 ng/mL); assay: as above; details: 72 h
[10] = system: KHYG-1 (IL-2 2.5 ng/mL); assay: as above; details: 72 h
[11] = system: normal primary NK cells, pool 2 (3 donors) (IL-2 2.5 ng/mL); assay: as above; details: 72 h
[12] = system: KAI3 (IL-2 2.5 ng/mL); assay: as above; details: 72 h
[13] = system: SNK-6 (IL-2 2.5 ng/mL); assay: as above; details: 72 h
[14] = system: normal NK cells expanded with K562-aAPC; assay: drug sensitivity score (DSS) (DSS units); higher = more sensitive; extreme values may be limits of the assay; details: 72 h; IL-2 2.5 ng/mL
Procedure: (§1)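 Drug sensitivity and resistance testing on K562-aAPC-expanded normal NK cells: 5 concentrations (10-fold steps over a 10,000-fold range), 72 h at 37 °C, viability by CellTiter-Glo normalised to DMSO and benzethonium chloride controls; DSS from the fitted curve.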

[15] = system: normal NK cells expanded with K562-aAPC; assay: percent inhibition of viability; higher = more inhibition; details: 72 h, IL-2 2.5 ng/mL
Procedure: as §1

[16] = system: IMC-1 (IL-2 20 ng/mL); assay: drug sensitivity score (DSS) (DSS units); higher = more sensitive; extreme values may be limits of the assay; details: 72 h
[17] = system: normal primary NK cells, pool 3 (3 donors) (IL-2 2.5 ng/mL); assay: as above; details: 72 h
[18] = system: NK-YS (IL-2 2.5 ng/mL); assay: as above; details: 72 h
[19] = system: YT (IL-2 2.5 ng/mL); assay: as above; details: 72 h
[20] = system: NK-92 (IL-2 2.5 ng/mL); assay: as above; details: 72 h
[21] = system: normal primary NK cells, pool 1 (3 donors) (IL-2 2.5 ng/mL); assay: as above; details: 72 h
[22] = system: DERL-7 (IL-2 2.5 ng/mL); assay: as above; details: 72 h
[23] = system: normal primary NK cells, pool 1 (3 donors), resting (IL-2 0 ng/mL); assay: as above; details: 72 h
[24] = system: NKL (IL-2 2.5 ng/mL); assay: as above; details: 72 h
[25] = system: KHYG-1 (IL-2 2.5 ng/mL); assay: as above; details: 72 h
[26] = system: normal primary NK cells, pool 2 (3 donors) (IL-2 2.5 ng/mL); assay: as above; details: 72 h
[27] = system: KAI3 (IL-2 2.5 ng/mL); assay: as above; details: 72 h
[28] = system: SNK-6 (IL-2 2.5 ng/mL); assay: as above; details: 72 h

O=C(NOC[C@H](O)CO)c1ccc(F)c(F)c1Nc1ccc(I)cc1F (max concentration tested 1000 nM)
percent inhibition of viability [%]
Details | 0.1 nM | 1 nM | 10 nM | 100 nM | 1000 nM
[1] | -4.97 | 0.45 | -4.28 | -5.8 | -9.8
[2] | -7.16 | -7.47 | -4.48 | -8.83 | -4.17
[3] | -5.52 | -3.02 | -1.28 | 2.92 | 8.84
[4] | -2.67 | -1.04 | -2.4 | 1.31 | 4.12
[5] | -5.72 | -7.22 | -10.3 | -30.8 | -12.8
[6] | -2.22 | -8.03 | 2.53 | 15.6 | 18
[7] | 102 | 5.21 | 16.2 | 22.4 | 38.7
[8] | 2.14 | 0.69 | 1.05 | 6.05 | 7
[9] | -14.2 | -2.12 | 27.4 | 41.5 | 59.1
[10] | -3.39 | 0.89 | 14.1 | 40.9 | 55
[11] | -3.98 | -4.69 | -0.06 | -5.3 | 5.01
[12] | -0.87 | 5.85 | 13.8 | 15.7 | 22.6
[13] | 4.76 | 22 | -8.5 | -17.1 | -28.3
[15] | -1.9 | -4.6 | -6.15 | -9.26 | -3.18

Details | drug sensitivity score
[14] | 0
[16] | 0
[17] | 0
[18] | 0
[19] | 0
[20] | 0
[21] | 1.95
[22] | 23.1
[23] | 0
[24] | 11.1
[25] | 9.09
[26] | 0
[27] | 3.26
[28] | 0

O[C@H]1CC[C@H](Nc2ncc3nc(Nc4c(F)cc(F)cc4F)n([C@H]4CCOC4)c3n2)CC1 [Tanzisertib] (max concentration tested 10000 nM)
percent inhibition of viability [%]
Details | 1 nM | 10 nM | 100 nM | 1000 nM | 10000 nM
[1] | -1.71 | -1.33 | 2.23 | -2.89 | 5.65
[2] | -10.2 | -3.98 | 0.77 | -8.69 | 3.78
[3] | -2.74 | -2.64 | 8.64 | 8.4 | 27.7
[4] | 1.29 | 0.43 | 6.25 | 4.44 | 17.9
[5] | -1.51 | -5.43 | 11.5 | -0.78 | 4.63
[6] | -1.02 | -9.12 | -4.55 | -5.56 | 12.8
[7] | 2.01 | 0.84 | 5.01 | 1.8 | 18.5
[8] | -2.07 | -5.9 | 3.76 | -27.5 | -23.7
[9] | -12.2 | -7.14 | 8.81 | 20.3 | 40
[10] | 0.6 | 1.16 | 7.05 | 3.25 | 12.8
[11] | -13.6 | -1.21 | 2.95 | -6.75 | 12.9
[12] | -8.76 | -8.77 | 4.38 | -3.26 | 2.19
[13] | -5.24 | -3.37 | -1.51 | -9.49 | -28.9
[15] | -0.53 | 1.03 | -5.53 | 1.96 | 16.8

Details | drug sensitivity score
[14] | 0.57
[16] | 0
[17] | 0
[18] | 1.7
[19] | 0.43
[20] | 0
[21] | 0.03
[22] | 0.7
[23] | 0
[24] | 4.27
[25] | 0
[26] | 0.02
[27] | 0
[28] | 0

CCCCC/C=C/C=C1/C(=O)C=C[C@@H]1C/C=C\CCCC(=O)O [15D-PGJ2] (max concentration tested 3000 nM)
percent inhibition of viability [%]
Details | 0.3 nM | 3 nM | 30 nM | 300 nM | 3000 nM
[1] | -2.09 | 2.04 | 0.05 | 5.09 | 1.41
[2] | -15.9 | -3.38 | 4.01 | -2.88 | 14.8
[3] | 2.56 | 5.36 | 6.24 | 9.44 | 10.4
[4] | -2.94 | -0.98 | -4.25 | -6.3 | 12.1
[5] | -11 | -12 | -5.46 | 5.82 | 13.3
[6] | 8.24 | -4.33 | -3.39 | -9.81 | 14
[7] | 3.37 | -0.28 | -1.84 | -0.56 | 14.4
[8] | 6.38 | -19 | 3.5 | -8.64 | 11.8
[9] | -9.35 | -3.21 | -6.49 | 3.89 | -15.1
[10] | -5.02 | 1.78 | 4.62 | 3.59 | 4.59
[11] | -13.3 | -1.17 | 5.71 | 0.83 | 16.9
[12] | -4.96 | -2.91 | -5.31 | -1.28 | 16.5
[13] | 1.92 | 3.18 | 18.9 | 6.05 | 19.9
[15] | -3.92 | -2.07 | 0.09 | 7.83 | 19.8

Details | drug sensitivity score
[14] | 1.44
[16] | 0
[17] | 0.13
[18] | 0
[19] | 0.01
[20] | 0.46
[21] | 0.07
[22] | 0.17
[23] | 0
[24] | 0
[25] | 0
[26] | 0.45
[27] | 0.28
[28] | 1.74
